According to the supplement of paper PMC10307832:

Assays:
Assay in all cases: relative viability (nuclei count vs DMSO), 5 days (fraction); higher = more cells survive
Bexarotene + Linsitinib = compound: C=C(c1ccc(C(=O)O)cc1)c1cc2c(cc1C)C(C)(C)CCC2(C)C [Bexarotene] + C[C@]1(O)C[C@@H](c2nc(-c3ccc4ccc(-c5ccccc5)nc4c3)c3c(N)nccn32)C1 [Linsitinib] (partner 1 µM)
In short: (§1)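 Cells from lung cancer lines were seeded into 1536-well plates and, one day later, dosed by pin tool. Treatments were either a single drug or a fixed dose of an anchor drug with five library-drug doses (not always all listed) in √10 steps. After 5 days, nuclei were stained in a one-step fixation (final 0.05% Triton X-100, 1% formaldehyde, 1 ug/ml Hoechst) and counted on 4× images, and relative viability is the treated-to-vehicle nuclei ratio, as the median of duplicate plates.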

Bexarotene + Pemetrexed = compound: C=C(c1ccc(C(=O)O)cc1)c1cc2c(cc1C)C(C)(C)CCC2(C)C [Bexarotene] + Nc1nc2[nH]cc(CCc3ccc(C(=O)N[C@@H](CCC(=O)O)C(=O)O)cc3)c2c(=O)[nH]1 [Pemetrexed] (partner 0.2 µM)
In short: as §1

Bexarotene + Vorinostat = compound: C=C(c1ccc(C(=O)O)cc1)c1cc2c(cc1C)C(C)(C)CCC2(C)C [Bexarotene] + O=C(CCCCCCC(=O)Nc1ccccc1)NO [Vorinostat] (partner 1 µM)
In short: as §1

Bexarotene + Olaparib = compound: C=C(c1ccc(C(=O)O)cc1)c1cc2c(cc1C)C(C)(C)CCC2(C)C [Bexarotene] + O=C(c1cc(Cc2n[nH]c(=O)c3ccccc23)ccc1F)N1CCN(C(=O)C2CC2)CC1 [Olaparib] (partner 8 µM)
In short: as §1

Cell Line | relative viability (Bexarotene + Linsitinib; first compound 0.08 µM) | relative viability (Bexarotene + Linsitinib; first compound 0.253 µM) | relative viability (Bexarotene + Linsitinib; first compound 0.8 µM) | relative viability (Bexarotene + Linsitinib; first compound 2.53 µM) | relative viability (Bexarotene + Linsitinib; first compound 8 µM) | relative viability (Bexarotene + Pemetrexed; first compound 0.08 µM) | relative viability (Bexarotene + Pemetrexed; first compound 0.253 µM) | relative viability (Bexarotene + Pemetrexed; first compound 0.8 µM) | relative viability (Bexarotene + Pemetrexed; first compound 2.53 µM) | relative viability (Bexarotene + Pemetrexed; first compound 8 µM) | relative viability (Bexarotene + Vorinostat; first compound 0.08 µM) | relative viability (Bexarotene + Vorinostat; first compound 0.253 µM) | relative viability (Bexarotene + Vorinostat; first compound 0.8 µM) | relative viability (Bexarotene + Vorinostat; first compound 2.53 µM) | relative viability (Bexarotene + Vorinostat; first compound 8 µM) | relative viability (Bexarotene + Olaparib; first compound 0.08 µM) | relative viability (Bexarotene + Olaparib; first compound 0.253 µM) | relative viability (Bexarotene + Olaparib; first compound 0.8 µM) | relative viability (Bexarotene + Olaparib; first compound 2.53 µM) | relative viability (Bexarotene + Olaparib; first compound 8 µM)
201T | 0.952 | 1.02 | 0.874 | 0.951 | 0.843 | 0.385 | 0.295 | 0.322 | 0.355 | 0.347 | 1.03 | 0.997 | 0.894 | 0.888 | 0.802 | 0.837 | 0.823 | 0.777 | 0.919 | 0.709
A-427 | 1.03 | 0.833 | 1.04 | 1.05 | 0.993 | 0.938 | 0.872 | 0.794 | 0.773 | 0.904 | 0.861 | 0.81 | 0.83 | 0.746 | 0.903 | 0.716 | 0.781 | 0.654 | 0.743 | 0.728
ABC-1 | 0.74 | 0.77 | 0.741 | 0.683 | 0.654 |  |  |  |  |  | 1.07 | 0.883 | 0.742 |  | 1.03 | 0.827 | 0.839 | 0.478 |  | 0.631
BEN | 1.04 | 0.883 | 0.847 | 0.76 | 0.742 | 0.883 | 0.629 | 0.784 | 0.637 | 0.725 | 0.685 | 0.583 | 0.531 | 0.531 | 0.547 | 1.05 | 0.942 | 1 | 0.853 | 1.06
CAL-12T | 0.682 | 0.894 | 0.727 | 0.707 | 0.656 | 1.15 | 1.19 | 1.21 | 1.13 | 1.06 | 0.723 | 0.837 | 0.887 | 0.529 | 0.655 | 0.728 | 0.64 | 0.658 | 0.648 | 0.67
COR-L23 | 0.936 | 0.984 | 0.641 | 0.737 | 0.762 | 0.198 | 0.206 | 0.198 | 0.214 | 0.202 | 0.54 | 0.539 | 0.411 | 0.426 | 0.337 | 0.344 | 0.365 | 0.323 | 0.373 | 0.301
Calu-6 | 1.02 | 0.886 | 0.729 | 0.91 | 0.954 |  |  |  |  |  |  |  |  |  |  | 0.638 | 0.563 | 0.494 | 0.606 | 0.568
ChaGo-K-1 |  |  |  |  |  | 0.274 | 0.249 | 0.251 | 0.253 | 0.275 | 0.848 | 0.886 | 0.844 | 0.818 | 0.918 | 0.411 | 0.413 | 0.408 | 0.395 | 0.42
EBC-1 | 0.954 | 0.89 | 0.783 | 0.929 | 1.06 |  |  |  |  |  |  |  |  |  |  | 0.771 | 0.713 | 0.588 | 0.701 | 0.715
IA-LM | 0.682 | 0.581 | 0.523 | 0.603 | 0.51 |  |  |  |  |  | 0.79 | 0.817 | 0.756 | 0.718 | 0.7 | 0.752 | 0.707 | 0.675 | 0.576 | 0.63
NCI-H727 | 0.286 | 0.408 | 0.305 | 0.311 | 0.284 |  |  |  |  |  | 1.46 | 1.16 | 1.26 | 1.18 | 0.971 | 0.778 | 0.694 | 0.804 | 0.691 | 0.807
NCI-H1299 | 1.02 | 1.01 | 0.991 | 1.02 | 0.94 |  |  |  |  |  |  |  |  |  |  | 0.951 | 0.967 | 0.917 | 0.882 | 0.895
NCI-H1563 | 1.21 | 1.28 | 1.03 | 1.06 | 1.04 | 0.753 | 0.632 | 0.745 | 0.682 | 0.85 |  |  |  |  |  |  |  |  |  | 
NCI-H1648 |  |  |  |  |  | 0.897 | 0.738 | 0.676 | 0.585 | 0.619 | 0.477 | 0.422 | 0.455 | 0.518 | 0.639 | 0.927 | 1.34 | 0.712 | 0.766 | 0.685
NCI-H1650 |  |  |  |  |  | 0.353 | 0.371 | 0.352 | 0.379 | 0.432 | 0.524 | 0.548 | 0.579 | 0.676 | 0.736 | 0.769 | 0.674 | 0.797 | 0.697 | 0.7
NCI-H1703 | 0.846 | 1.02 | 1.02 | 0.619 | 0.629 |  |  |  |  |  |  |  |  |  |  | 0.532 | 0.494 | 0.483 | 0.386 | 0.377
NCI-H1792 | 0.437 | 0.586 | 0.259 | 0.422 | 0.342 | 1.1 | 0.848 | 0.487 | 0.482 | 0.455 |  |  |  |  |  | 0.229 | 0.435 | 0.393 | 0.337 | 0.32
NCI-H2170 |  |  |  |  |  | 0.265 | 0.272 | 0.254 | 0.258 | 0.27 | 0.746 | 0.913 | 0.753 | 0.699 | 0.687 | 0.576 | 0.645 | 0.574 | 0.609 | 0.562
SW 900 |  |  |  |  |  | 0.509 | 0.465 | 0.456 | 0.454 | 0.477 | 0.543 | 0.473 | 0.433 | 0.453 | 0.471 | 0.936 | 0.733 | 1.11 | 0.866 | 0.863
